{"source": "patent US4182774A", "about": "“Method of inhibiting blood platelet aggregation with 2-amino-3-(5- and 6-)benzoylphenylacetic acids, esters and metal salts thereof” (A. H. Robins Company, Incorporated, priority 1978, dated 1980)", "key": {"[1]": {"test_system": "Collagen-Induced Platelet Aggregation", "assay": "Collagen-induced platelet aggregation after oral dosing of rats (platelet rich plasma 2 h after dose)", "format": "in vivo, rat", "protocol": "The procedure used is essentially that as described by Born, J. of Phys. […] Rats were orally administered test drugs and after two hours the rats were bled and platelet rich plasma obtained. Collagen was added to the platelet rich plasma to induce platelet aggregation and comparisons were made between control and treated samples."}, "[2]": {"test_system": "collagen-induced platelet aggregation in rabbit plasma", "assay": "Inhibition of collagen-induced platelet aggregation in rabbit plasma", "format": "cell-based", "conditions": "Table III", "description": "^1 Concentration required to inhibit aggregation by 50%."}, "[3]": {"test_system": "Evans Blue-Carrageenan Pleural Effusion", "assay": "Modification of the Evans Blue-Carrageenan Pleural Effusion Assay (anti-inflammatory activity)", "format": "in vivo", "conditions": "relative to 4-amino-3-benzoylphenylacetic acid; method of Sancilio", "protocol": "The prior art (South African Patent 68/4682) discloses 4-amino-3-benzoylphenylacetic acid, m.p. 135°-7° C. The compound was prepared and tested for anti-inflammatory activity by the method of Sancilio referred to immediately hereinabove."}, "[4]": {"test_system": "Adenosine Diphosphate-Induced Platelet Aggregation-Rabbit Plasma", "assay": "In vitro inhibition of adenosine diphosphate-induced platelet aggregation in rabbit plasma", "format": "cell-based", "conditions": "Table IV, ADP", "description": "Effects on Adenosine Diphosphate-Induced\nPlatelet Aggregation-Rabbit Plasma"}, "[5]": {"conditions": "Table IV comment"}, "[6]": {"conditions": "Table I, 10.00 mg/kg PO, rats, collagen"}, "[7]": {"conditions": "Table I, 100.00 mg/kg PO, rats, collagen"}, "[8]": {"conditions": "Table I, 31.60 mg/kg PO, rats, collagen"}, "[9]": {"conditions": "Oryctolagus cuniculus, Platelet, 1.0 mM, read-out: Percent Inhibition"}}}
{"smiles": "CC(=O)Oc1ccccc1C(=O)O", "note": "[Acetylsalicylic Acid, reference compound]", "values": [{"measurement": "Percent Reduction in Aggregation", "setting": "[1]; Table II, 316.0 mg/kg PO, 2 rats", "result": -74, "unit": "%"}, {"measurement": "Estimated IC50 (concentration required to inhibit aggregation by 50%)", "setting": "[2]", "result": 23, "unit": "µM"}]}
{"smiles": "Nc1c(CC(=O)O)cc(Cl)cc1C(=O)c1ccccc1", "note": "[Example 6, 2-Amino-3-benzoyl-5-chlorophenylacetic Acid Hemihydrate]", "values": [{"measurement": "Percent Reduction in Aggregation", "setting": "[1]; [6]", "result": -36, "unit": "%"}, {"measurement": "Percent Reduction in Aggregation", "setting": "[1]; [7]", "result": -76, "unit": "%"}]}
{"smiles": "Nc1c(CC(=O)O)cccc1C(=O)c1ccccc1", "note": "[Example 16, Potassium 2-amino-3-benzoylphenylacetate Hydrate]", "values": [{"measurement": "Percent Reduction in Aggregation", "setting": "[1]; Table I, 0.20 mg/kg PO, rats, collagen, Hydrate, 0.2 mg/kg", "result": -56, "unit": "%"}]}
{"smiles": "Nc1cccc(C(=O)c2ccccc2)c1CC(=O)O", "note": "[2-amino-6-benzoylphenylacetic acid]", "values": [{"measurement": "Anti-inflammatory activity, times the activity of the prior art 4-amino-3-benzoylphenylacetic acid", "setting": "[3]", "result": "~3", "unit": "times"}]}
{"smiles": "CCOC(=O)Cc1cccc(C(=O)c2ccccc2)c1N", "note": "[Example 9, Ethyl 2-amino-3-benzoylphenylacetate]", "values": [{"measurement": "Percent Reduction in Aggregation", "setting": "[1]; [6]", "result": -49, "unit": "%"}, {"measurement": "Percent Reduction in Aggregation", "setting": "[1]; [7]", "result": -75, "unit": "%"}]}
{"smiles": "CN(C)c1c(CC(=O)O)cccc1C(=O)c1ccccc1", "note": "[Example 12, 2-Dimethylamino-3-benzoylphenylacetic Acid]", "values": [{"measurement": "Percent Reduction in Aggregation", "setting": "[1]; [8]", "result": -56, "unit": "%"}]}
{"smiles": "CC(C(=O)[O-])c1cccc(C(=O)c2ccccc2)c1N.O.[Na+]", "note": "(stereo not drawn) [Example 15, Sodium 2-amino-3-benzoyl-α-methylphenylacetate Hydrate]", "values": [{"measurement": "Percent Reduction in Aggregation", "setting": "[1]; Table I, 3.00 mg/kg PO, rats, collagen", "result": -56, "unit": "%"}, {"measurement": "Percent Reduction in Aggregation", "setting": "[1]; [8]", "result": -48, "unit": "%"}, {"measurement": "Percent Reduction in Aggregation", "setting": "[1]; [7]", "result": -76, "unit": "%"}]}
{"smiles": "Nc1c(CC(=O)O)cccc1C(=O)c1ccccc1", "note": "[Example 3, 2-Amino-3-benzoylphenylacetic Acid]", "values": [{"measurement": "Anti-inflammatory activity, times the activity of the prior art 4-amino-3-benzoylphenylacetic acid", "setting": "[3]", "result": "about 39 times"}]}
{"smiles": "CCCCC1C(=O)N(c2ccccc2)N(c2ccccc2)C1=O", "note": "[Phenylbutazone]", "values": [{"measurement": "Percent Reduction in Aggregation", "setting": "[1]; Table II, 50.0 mg/kg PO, 2 rats", "result": -74, "unit": "%"}, {"measurement": "Estimated IC50 (concentration required to inhibit aggregation by 50%)", "setting": "[2]", "result": 150, "unit": "µM"}, {"measurement": "inhibition at 400 µM", "setting": "[4]; Oryctolagus cuniculus, Platelet, 0.4 mM, read-out: Percent Inhibition", "result": 3, "unit": "%"}, {"measurement": "inhibition at 800 µM", "setting": "[4]; Oryctolagus cuniculus, Platelet, 0.8 mM, read-out: Percent Inhibition", "result": 2, "unit": "%"}]}
{"smiles": "Nc1c(CC(=O)O)cccc1C(=O)c1ccccc1", "note": "[Example 25, Magnesium 2-amino-3-benzoylphenylacetate Trihydrate]", "values": [{"measurement": "Percent Reduction in Aggregation", "setting": "[1]; Table I, 0.20 mg/kg PO, rats, collagen, Trihydrate, 0.2 mg/kg", "result": -25, "unit": "%"}]}
{"smiles": "O=C(O)c1ccccc1Nc1cccc(C(F)(F)F)c1", "note": "[Flufenamic Acid]", "values": [{"measurement": "Estimated IC50 (concentration required to inhibit aggregation by 50%)", "setting": "[2]", "result": 2, "unit": "µM"}]}
{"smiles": "Nc1c(CC(=O)O)cccc1C(=O)c1ccccc1", "note": "[Example 8, Sodium 2-amino-3-benzoylphenylacetate Dihydrate]", "values": [{"measurement": "Percent Reduction in Aggregation", "setting": "[1]; Table I, 8.00 mg/kg PO, rats, collagen", "result": -63, "unit": "%"}, {"measurement": "Percent Reduction in Aggregation", "setting": "[1]; Table II, 8.0 mg/kg PO, 3 rats", "result": -63, "unit": "%"}, {"measurement": "Estimated IC50 (concentration required to inhibit aggregation by 50%)", "setting": "[2]", "result": 0.2, "unit": "µM"}, {"measurement": "Estimated IC50 (concentration required to inhibit aggregation by 50%), value in parentheses", "setting": "[2]", "result": 0.2, "unit": "µM"}, {"measurement": "inhibition at 100 µM", "setting": "[4]; Oryctolagus cuniculus, Platelet, 0.1 mM, read-out: Percent Inhibition", "result": 4, "unit": "%"}, {"measurement": "inhibition at 1000 µM", "setting": "[4]; [9]", "result": 8, "unit": "%"}, {"measurement": "inhibition at 10000 µM", "setting": "[4]; Oryctolagus cuniculus, Platelet, 10.0 mM, read-out: Percent Inhibition", "result": 82, "unit": "%"}, {"measurement": "Estimated IC50 (Comment)", "setting": "[4]", "result": 4000, "unit": "µM"}]}
{"smiles": "Nc1c(CC(=O)[O-])cccc1C(=O)c1ccccc1.[Na+]", "note": "[sodium 2-amino-3-benzoylphenylacetate]", "values": [{"measurement": "Anti-inflammatory activity, times the activity of the prior art 4-amino-3-benzoylphenylacetic acid", "setting": "[3]", "result": "~48", "unit": "times"}]}
{"smiles": "O=C(O)c1ccccc1O", "note": "[Salicyclic Acid]", "values": [{"measurement": "Percent Inhibition", "setting": "[4]; 0.05 mM", "result": 7, "unit": "%"}, {"measurement": "Percent Inhibition", "setting": "[4]; 0.50 mM", "result": 7, "unit": "%"}, {"measurement": "Percent Inhibition", "setting": "[4]; 1.0 mM", "result": 12, "unit": "%"}, {"measurement": "Percent Inhibition", "setting": "[4]; 10.0 mM", "result": 20, "unit": "%"}, {"measurement": "Comment: solubility precludes higher testing", "setting": "[5]", "result": "precludes higher"}]}
{"smiles": "Nc1c(CC(=O)O)cccc1C(=O)c1ccccc1", "note": "[Example 27, Sodium 2-Amino-3-benzoylphenylacetate Hydrate]", "values": [{"measurement": "Percent Reduction in Aggregation", "setting": "[1]; Table I, 0.00032 mg/kg PO, rats, collagen", "result": -76, "unit": "%"}, {"measurement": "Percent Reduction in Aggregation", "setting": "[1]; Table I, 1.30 mg/kg PO, rats, collagen", "result": -44, "unit": "%"}, {"measurement": "Percent Reduction in Aggregation", "setting": "[1]; Table I, 5.10 mg/kg PO, rats, collagen", "result": -68, "unit": "%"}, {"measurement": "Percent Reduction in Aggregation", "setting": "[1]; [7]", "result": -77, "unit": "%"}]}
{"smiles": "COc1ccc(C(=O)c2cccc(CC(=O)O)c2N)cc1", "note": "[Example 24, 2-Amino-3-(4-methoxybenzoyl)phenylacetic Acid]", "values": [{"measurement": "Percent Reduction in Aggregation", "setting": "[1]; Table I, 0.00063 mg/kg PO, rats, collagen", "result": -73, "unit": "%"}, {"measurement": "Percent Reduction in Aggregation", "setting": "[1]; Table I, 4.00 mg/kg PO, rats, collagen", "result": -88, "unit": "%"}, {"measurement": "Percent Reduction in Aggregation", "setting": "[1]; Table I, 25.00 mg/kg PO, rats, collagen", "result": -71, "unit": "%"}, {"measurement": "Percent Reduction in Aggregation", "setting": "[1]; [7]", "result": -81, "unit": "%"}]}
{"smiles": "Nc1ncnc2c1ncn2[C@@H]1O[C@H](CO)[C@@H](O)[C@H]1O", "note": "[Adenosine]", "values": [{"measurement": "inhibition at 1000 µM", "setting": "[4]; [9]", "result": 84, "unit": "%"}]}
{"smiles": "Nc1c(CC(=O)O)cccc1C(=O)c1ccc(Cl)cc1", "note": "[Example 14, Sodium 2-amino-3-(4-chlorobenzoyl)phenylacetate Hydrate]", "values": [{"measurement": "Percent Reduction in Aggregation", "setting": "[1]; [8]", "result": -27, "unit": "%"}, {"measurement": "Percent Reduction in Aggregation", "setting": "[1]; [7]", "result": -65, "unit": "%"}]}
